In ChEMBL document CHEMBL1201862, “PubChem BioAssay data set” (2004):
Calls of active or inactive are those of the source.

Experiments:
[1] = Luminescence-based dose response cell-based high throughput screening assay for cytotoxic compounds using the IEC-6 intestinal epithelial cell line. [Related pubchem assays: 1858 (Summary AID.), 1825 (Counterscreen.), 1907 (Confirmation screen.)]; type: functional
[2] = Luminescence Cell-Based Dose Retest to Confirm Inhibitors of Cancer Stem Cells. [Related pubchem assays (depositor defined):AID2717, AID2721]; type: functional; details: Homo sapiens
INS1 = experiment: beta cell apoptosis inhibitors, cytokine rescue, dose response, luminescence, retest (AID 449756); type: functional, cell-based; details: Rattus norvegicus;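 further: cell death triggered by IL-1 beta plus TNF-alpha plus IFN-gamma mixture; protective hits raise ATP signal compared with cytokine alone wells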
[3] = HEK293T cytotoxicity, dose response, cytotoxicity control for miR-122 modulator project, cell-based, inhibitor set, cherry-pick, set 2 (AID 720697); type: functional
[4] = miR-122 activators in hepatoma reporter cells, dose response, cell-based, Huh7 psiCHECK-miR122, Renilla luciferase, cherry-picked (AID 651956); type: functional;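 further: huh7 hepatoma cells stably carrying a psiCHECK-2 miR-122 sensor plasmid; renilla luciferase signal reporting endogenous miR-122 activity after 48 h compound exposure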
[5] = target: T1, Trace amine-associated receptor 1 (Homo sapiens, UniProt Q96RJ0); experiment: Counterscreen for antagonists of the human trace amine associated receptor 1 (hTAAR1): Fluorescence-based cell-based high throughput dose response assay to identify TAAR1 Agonists.; type: functional
T1 sequence (Q96RJ0 whole entry): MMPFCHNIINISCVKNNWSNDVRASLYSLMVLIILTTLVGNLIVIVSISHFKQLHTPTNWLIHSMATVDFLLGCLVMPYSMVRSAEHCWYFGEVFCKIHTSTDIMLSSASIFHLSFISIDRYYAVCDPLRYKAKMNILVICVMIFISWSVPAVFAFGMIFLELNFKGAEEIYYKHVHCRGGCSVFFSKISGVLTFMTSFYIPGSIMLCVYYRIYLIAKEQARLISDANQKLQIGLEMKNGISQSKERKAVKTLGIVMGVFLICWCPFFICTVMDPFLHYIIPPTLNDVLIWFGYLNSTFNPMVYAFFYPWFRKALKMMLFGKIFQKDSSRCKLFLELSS

[6] = Counterscreen for […] of the human trace amine associated receptor 1 (TAAR1): Fluorescence-based cell-based high throughput dose response assay to identify nonselective Ga16 agonists.; type: functional
[7] = Counterscreen for antagonists of the human trace amine associated receptor 1 (hTAAR1): Fluorescence-based cell-based high throughput dose response assay to identify nonselective Ga16 antagonists.; type: functional
[8] = target: T1, Trace amine-associated receptor 1; experiment: Fluorescence-based cell-based high throughput dose response assay to identify antagonists of the human trace amine associated receptor 1 (TAAR1).; type: functional
[9] = target: Matrix metalloproteinase-14 (Homo sapiens, UniProt P50281); experiment: Dose Response confirmation of uHTS hits for a small molecule inhibitors of MT1-MMP activation in a fluorescence assay set 1.; type: functional
Galanin receptor type 3 = Galanin receptor type 3 (Homo sapiens, UniProt O60755); experiment: Fluorescence-based cell-based primary high throughput dose response assay to identify antagonists of the Galanin Receptor 3 (GalR3).; type: functional
[10] = cytotoxicity in HEK-293T cells, dose response, cytotoxicity control for TCR NF-kB inhibitor project, luminescence, T-cell screen hits (AID 489026); type: functional, cell-based;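 further: cells exposed to compound about 14 hours before the viability readout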
cells = type: functional, cell-based; details: HEK-CNG
[11] = target: Tyrosine-protein phosphatase non-receptor type 5 (Homo sapiens, UniProt P54829); experiment: STEP phosphatase inhibitors, confirmation, biochemical, fluorescence intensity, uHTS hits (AID 602372); type: functional; details: read-out: IC50_Mean
[12] = target: Tyrosine-protein phosphatase non-receptor type 11 (Homo sapiens, UniProt Q06124); experiment: SHP2 phosphatase inhibition, dose response, selectivity assay for STEP inhibitor project, biochemical (AID 602367); type: functional; details: read-out: IC50_Mean
[13] = target: T2, Tyrosine-protein phosphatase non-receptor type 22 (Homo sapiens, UniProt Q9Y2R2); experiment: PTPN22 phosphatase inhibition, dose response, selectivity assay for STEP inhibitor project, biochemical (AID 624241); type: functional
T2 sequence (Q9Y2R2 whole entry): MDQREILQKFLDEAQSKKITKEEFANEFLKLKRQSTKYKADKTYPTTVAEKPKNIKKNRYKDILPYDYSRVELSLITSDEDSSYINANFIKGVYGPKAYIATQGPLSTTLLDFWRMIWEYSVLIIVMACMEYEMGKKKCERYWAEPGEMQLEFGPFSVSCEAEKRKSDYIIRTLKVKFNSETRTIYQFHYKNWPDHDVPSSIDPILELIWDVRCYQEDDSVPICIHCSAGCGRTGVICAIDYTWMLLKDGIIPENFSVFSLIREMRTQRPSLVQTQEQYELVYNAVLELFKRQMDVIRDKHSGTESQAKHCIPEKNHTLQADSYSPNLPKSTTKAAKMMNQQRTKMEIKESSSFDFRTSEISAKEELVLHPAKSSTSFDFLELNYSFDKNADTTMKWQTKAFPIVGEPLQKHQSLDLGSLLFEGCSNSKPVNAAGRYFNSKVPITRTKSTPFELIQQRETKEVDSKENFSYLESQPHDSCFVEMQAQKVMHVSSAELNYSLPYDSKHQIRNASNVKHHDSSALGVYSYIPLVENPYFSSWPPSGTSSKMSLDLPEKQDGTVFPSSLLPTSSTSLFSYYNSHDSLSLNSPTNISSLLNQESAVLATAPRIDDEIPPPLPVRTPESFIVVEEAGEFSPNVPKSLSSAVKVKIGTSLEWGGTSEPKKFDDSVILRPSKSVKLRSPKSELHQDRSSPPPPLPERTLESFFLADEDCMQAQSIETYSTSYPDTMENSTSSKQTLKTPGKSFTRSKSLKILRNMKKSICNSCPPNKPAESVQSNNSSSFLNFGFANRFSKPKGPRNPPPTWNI

[14] = target: T3, Carboxy-terminal domain RNA polymerase II polypeptide A small phosphatase 1 (Homo sapiens, UniProt Q9GZU7); experiment: inhibitors of CTDSP1, concentration-response testing, biochemical assay, absorbance-based, actives from ultra-high-throughput screening (AID 540297); type: functional
T3 sequence (Q9GZU7 whole entry): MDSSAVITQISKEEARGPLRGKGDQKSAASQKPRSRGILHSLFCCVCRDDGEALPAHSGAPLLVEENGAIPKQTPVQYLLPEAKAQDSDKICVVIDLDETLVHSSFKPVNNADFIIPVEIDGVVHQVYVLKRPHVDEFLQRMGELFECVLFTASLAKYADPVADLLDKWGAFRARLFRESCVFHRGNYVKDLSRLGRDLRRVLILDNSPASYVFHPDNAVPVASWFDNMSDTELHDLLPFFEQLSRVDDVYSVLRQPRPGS

[15] = target: Dual specificity protein phosphatase 3 (Homo sapiens, UniProt P51452); experiment: VHR phosphatase inhibition, dose response, selectivity assay for STEP inhibitor project, biochemical (AID 602374); type: functional; details: read-out: IC50_Mean
[16] = T. cruzi growth inhibition in host cells, dose response, cell-based, plate reader, dry powder, set 2 (AID 652275); type: functional
[17] = target: DNA repair protein RAD52 homolog (Homo sapiens, UniProt P43351); type: functional, biochemical
H9c2 = experiment: cells; type: functional, cell-based; details: Rattus norvegicus, H9c2, Myocardium
Protein skinhead-1 = target: T4, Protein skinhead-1 (Caenorhabditis elegans, UniProt P34707); type: functional
T4 sequence (P34707 whole entry): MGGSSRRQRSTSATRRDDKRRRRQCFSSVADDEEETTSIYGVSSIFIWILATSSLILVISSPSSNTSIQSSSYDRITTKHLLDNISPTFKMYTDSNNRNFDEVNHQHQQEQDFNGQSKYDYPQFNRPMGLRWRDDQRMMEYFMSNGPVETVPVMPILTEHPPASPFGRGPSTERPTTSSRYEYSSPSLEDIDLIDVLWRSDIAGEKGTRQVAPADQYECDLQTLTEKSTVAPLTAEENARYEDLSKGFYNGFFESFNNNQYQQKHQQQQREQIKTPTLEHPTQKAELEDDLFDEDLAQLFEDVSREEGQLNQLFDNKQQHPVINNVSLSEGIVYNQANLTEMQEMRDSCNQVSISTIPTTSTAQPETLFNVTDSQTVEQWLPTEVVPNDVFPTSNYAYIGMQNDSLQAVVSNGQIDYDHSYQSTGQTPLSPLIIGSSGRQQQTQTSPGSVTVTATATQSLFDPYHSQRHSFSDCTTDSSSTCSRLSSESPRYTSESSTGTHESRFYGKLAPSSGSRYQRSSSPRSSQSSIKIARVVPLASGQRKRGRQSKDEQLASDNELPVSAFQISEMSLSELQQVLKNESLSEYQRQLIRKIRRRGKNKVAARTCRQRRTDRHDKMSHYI

Large T antigen = Large T antigen (Simian virus 40, UniProt P03070); type: functional, Betapolyomavirus macacae;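 further: Confirmatory-stage PubChem screen for compounds that inhibit SV40 T antigen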
[18] = target: FAD-linked sulfhydryl oxidase ALR (Homo sapiens, UniProt P55789); experiment: inhibitors of human ALR sulfhydryl oxidase, dose response, biochemical, H2O2 detection, luminescence, cherry-pick (AID 493248)
[19] = target: T1, Trace amine-associated receptor 1; experiment: Fluorescence-based cell-based high throughput dose response assay to identify agonists of the human trace amine associated receptor 1 (TAAR1).; type: functional
Mu-type opioid receptor = Mu-type opioid receptor (Homo sapiens, UniProt P35372); type: functional, cell-based;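 further: U2OS cells with beta-arrestin recruitment to OPRM1 by beta-gal complementation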
[20] = target: T1, Trace amine-associated receptor 1; experiment: Counterscreen for agonists of the human trace amine associated receptor 1 (hTAAR1): Fluorescence-based cell-based high throughput dose response assay to identify hTAAR1 agonist that also desensitize TAAR1 receptor response.; type: functional
[21] = target: 5-hydroxytryptamine receptor 2A (Mus musculus, UniProt P35363); type: functional, cell-based;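 further: CHO-K1 cells with tagged receptor and beta-arrestin; agonist potency measured as compound-induced activation of the receptor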
[22] = target: Broad substrate specificity ATP-binding cassette transporter ABCG2 (Homo sapiens, UniProt Q9UNQ0); experiment: ABCG2 efflux pump inhibitors, dose response, Ig-MXP3 cells, flow cytometry (AID 1690); type: functional
[23] = HEK293T cytotoxicity, dose response, cytotoxicity control for miR-122 modulator project, cell-based, activator set, cherry-pick (AID 720690); type: functional;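 further: HEK293T human cells scored for general mammalian cytotoxicity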
[24] = target: T5, High affinity choline transporter 1 (Homo sapiens, UniProt Q9GZV3); experiment: CHT choline uptake inhibitors, dose response, cell-based, HEK-293 hCHT, [3H]-choline uptake (AID 652177); type: functional
T5 sequence (Q9GZV3 whole entry): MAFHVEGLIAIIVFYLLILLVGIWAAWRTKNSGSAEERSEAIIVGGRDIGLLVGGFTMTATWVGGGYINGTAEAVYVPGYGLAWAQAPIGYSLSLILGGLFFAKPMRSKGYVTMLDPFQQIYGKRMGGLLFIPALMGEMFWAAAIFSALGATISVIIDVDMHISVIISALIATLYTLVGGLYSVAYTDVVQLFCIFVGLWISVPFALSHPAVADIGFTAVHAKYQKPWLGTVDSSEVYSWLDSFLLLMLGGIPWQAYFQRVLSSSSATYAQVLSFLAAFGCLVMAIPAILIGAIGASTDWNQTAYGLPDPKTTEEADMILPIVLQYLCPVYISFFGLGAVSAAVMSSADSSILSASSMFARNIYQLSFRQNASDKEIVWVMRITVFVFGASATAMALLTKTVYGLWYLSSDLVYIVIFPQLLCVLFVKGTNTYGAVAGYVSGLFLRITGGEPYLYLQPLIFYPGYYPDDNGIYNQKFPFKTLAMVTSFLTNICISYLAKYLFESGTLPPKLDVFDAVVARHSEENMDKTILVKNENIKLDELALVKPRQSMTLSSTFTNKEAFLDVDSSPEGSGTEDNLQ

[25] = T. cruzi intracellular amastigote growth inhibition, dose response, imaging, CA-I/72 strain, bovine embryo skeletal muscle, dry powder (AID 651885); type: functional, cell-based
Vero = experiment: Vero cell toxicity, dose response, cytotoxicity control, plate reader, cherry-pick samples (AID 687020); type: functional, cell-based; details: Chlorocebus sabaeus
Fatty acid synthase = Fatty acid synthase (Homo sapiens, UniProt P49327); experiment: FAS thioesterase domain inhibitors, SAR follow-up, biochemical, endpoint fluorescence intensity, powder samples (AID 652164); type: functional
Chain of Fatty acid synthase (P49327 whole entry, the tested form may be a part): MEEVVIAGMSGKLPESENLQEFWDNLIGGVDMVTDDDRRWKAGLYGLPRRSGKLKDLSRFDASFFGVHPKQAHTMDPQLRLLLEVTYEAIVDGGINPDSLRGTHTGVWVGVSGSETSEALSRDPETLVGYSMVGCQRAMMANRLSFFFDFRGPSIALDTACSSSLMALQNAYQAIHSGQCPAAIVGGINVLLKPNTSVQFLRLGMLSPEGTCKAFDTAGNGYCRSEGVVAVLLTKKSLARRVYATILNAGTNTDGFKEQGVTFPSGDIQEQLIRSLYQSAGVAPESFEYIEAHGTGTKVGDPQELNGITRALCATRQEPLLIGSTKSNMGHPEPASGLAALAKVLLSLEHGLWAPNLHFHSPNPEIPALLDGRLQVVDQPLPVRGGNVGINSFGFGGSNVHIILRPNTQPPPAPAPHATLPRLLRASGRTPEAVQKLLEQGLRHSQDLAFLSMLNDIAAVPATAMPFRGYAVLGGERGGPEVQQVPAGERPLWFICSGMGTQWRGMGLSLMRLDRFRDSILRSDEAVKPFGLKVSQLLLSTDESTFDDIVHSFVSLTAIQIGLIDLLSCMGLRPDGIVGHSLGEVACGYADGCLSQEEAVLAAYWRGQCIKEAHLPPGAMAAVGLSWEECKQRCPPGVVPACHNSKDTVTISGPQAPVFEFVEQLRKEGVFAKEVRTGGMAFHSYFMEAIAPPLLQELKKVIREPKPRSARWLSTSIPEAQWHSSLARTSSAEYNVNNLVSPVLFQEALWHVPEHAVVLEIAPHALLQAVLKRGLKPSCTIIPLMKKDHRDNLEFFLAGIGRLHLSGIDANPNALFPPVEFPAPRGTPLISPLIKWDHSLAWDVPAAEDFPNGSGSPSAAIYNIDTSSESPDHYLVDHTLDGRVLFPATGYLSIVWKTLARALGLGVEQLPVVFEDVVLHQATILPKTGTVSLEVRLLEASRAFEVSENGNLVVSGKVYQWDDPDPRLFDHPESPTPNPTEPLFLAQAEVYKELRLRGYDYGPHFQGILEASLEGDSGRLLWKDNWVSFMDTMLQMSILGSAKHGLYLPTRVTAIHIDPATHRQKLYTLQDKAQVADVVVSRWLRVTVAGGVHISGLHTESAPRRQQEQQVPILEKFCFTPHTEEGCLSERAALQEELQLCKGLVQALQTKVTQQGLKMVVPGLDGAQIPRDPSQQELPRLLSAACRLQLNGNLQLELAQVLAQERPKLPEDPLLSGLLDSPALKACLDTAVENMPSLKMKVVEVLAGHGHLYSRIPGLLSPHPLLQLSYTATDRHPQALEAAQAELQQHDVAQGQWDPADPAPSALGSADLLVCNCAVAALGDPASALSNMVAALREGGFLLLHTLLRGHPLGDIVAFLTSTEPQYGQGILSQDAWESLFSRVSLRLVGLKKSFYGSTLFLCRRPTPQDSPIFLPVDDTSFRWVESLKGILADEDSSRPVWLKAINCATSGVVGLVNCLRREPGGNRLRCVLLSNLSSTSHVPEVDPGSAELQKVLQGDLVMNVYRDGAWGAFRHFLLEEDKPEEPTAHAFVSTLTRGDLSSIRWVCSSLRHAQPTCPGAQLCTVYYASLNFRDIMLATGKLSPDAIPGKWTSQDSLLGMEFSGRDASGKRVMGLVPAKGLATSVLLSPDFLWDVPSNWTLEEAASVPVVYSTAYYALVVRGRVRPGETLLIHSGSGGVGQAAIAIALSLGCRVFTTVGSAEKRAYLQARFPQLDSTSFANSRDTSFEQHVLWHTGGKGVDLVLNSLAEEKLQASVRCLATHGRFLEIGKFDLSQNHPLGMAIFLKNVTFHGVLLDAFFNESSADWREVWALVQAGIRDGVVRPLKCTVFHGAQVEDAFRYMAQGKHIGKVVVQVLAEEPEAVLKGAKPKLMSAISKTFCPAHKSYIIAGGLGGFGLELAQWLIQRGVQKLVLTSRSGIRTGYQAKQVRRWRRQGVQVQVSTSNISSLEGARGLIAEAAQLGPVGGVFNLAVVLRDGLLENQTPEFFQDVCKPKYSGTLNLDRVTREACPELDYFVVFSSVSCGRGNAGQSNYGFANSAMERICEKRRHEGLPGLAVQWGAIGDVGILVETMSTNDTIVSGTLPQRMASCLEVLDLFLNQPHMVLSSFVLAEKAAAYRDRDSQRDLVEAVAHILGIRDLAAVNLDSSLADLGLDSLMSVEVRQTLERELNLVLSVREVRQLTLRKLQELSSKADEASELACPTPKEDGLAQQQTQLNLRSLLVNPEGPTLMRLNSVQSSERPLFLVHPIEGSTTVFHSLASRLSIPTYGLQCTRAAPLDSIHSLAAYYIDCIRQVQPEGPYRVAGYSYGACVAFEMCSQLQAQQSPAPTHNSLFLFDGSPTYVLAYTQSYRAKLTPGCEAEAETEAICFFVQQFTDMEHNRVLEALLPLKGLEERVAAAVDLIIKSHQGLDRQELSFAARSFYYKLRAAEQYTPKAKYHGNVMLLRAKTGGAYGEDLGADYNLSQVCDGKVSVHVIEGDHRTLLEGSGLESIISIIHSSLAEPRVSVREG

Chain of Galanin receptor type 3 (O60755 whole entry): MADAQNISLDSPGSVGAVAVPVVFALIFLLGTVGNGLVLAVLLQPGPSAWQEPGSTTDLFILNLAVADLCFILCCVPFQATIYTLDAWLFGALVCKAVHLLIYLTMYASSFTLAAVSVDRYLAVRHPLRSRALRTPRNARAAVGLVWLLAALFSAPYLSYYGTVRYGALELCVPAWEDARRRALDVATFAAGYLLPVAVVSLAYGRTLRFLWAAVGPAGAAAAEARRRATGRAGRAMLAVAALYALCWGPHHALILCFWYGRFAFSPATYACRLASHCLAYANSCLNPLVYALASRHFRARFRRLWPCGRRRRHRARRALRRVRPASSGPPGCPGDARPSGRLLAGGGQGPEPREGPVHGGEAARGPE
Chain of Broad substrate specificity ATP-binding cassette transporter ABCG2 (Q9UNQ0 whole entry): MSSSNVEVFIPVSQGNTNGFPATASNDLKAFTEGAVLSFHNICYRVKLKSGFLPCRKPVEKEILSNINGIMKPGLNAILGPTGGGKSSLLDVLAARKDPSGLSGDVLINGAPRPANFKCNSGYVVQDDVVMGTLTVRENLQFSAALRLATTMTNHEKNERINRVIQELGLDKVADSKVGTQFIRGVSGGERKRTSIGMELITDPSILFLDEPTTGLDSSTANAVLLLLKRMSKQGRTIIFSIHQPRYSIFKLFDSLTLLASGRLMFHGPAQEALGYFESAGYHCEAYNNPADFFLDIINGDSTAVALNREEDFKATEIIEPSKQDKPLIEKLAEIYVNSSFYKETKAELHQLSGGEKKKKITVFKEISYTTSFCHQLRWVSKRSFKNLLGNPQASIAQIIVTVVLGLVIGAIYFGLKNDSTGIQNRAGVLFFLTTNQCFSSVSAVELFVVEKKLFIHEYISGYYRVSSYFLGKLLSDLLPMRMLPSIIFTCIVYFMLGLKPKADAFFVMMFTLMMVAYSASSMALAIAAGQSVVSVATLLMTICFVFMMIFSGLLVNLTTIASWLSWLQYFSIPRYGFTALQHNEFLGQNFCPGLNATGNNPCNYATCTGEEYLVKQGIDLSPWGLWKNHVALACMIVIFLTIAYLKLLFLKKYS
Chain of Large T antigen (P03070 whole entry): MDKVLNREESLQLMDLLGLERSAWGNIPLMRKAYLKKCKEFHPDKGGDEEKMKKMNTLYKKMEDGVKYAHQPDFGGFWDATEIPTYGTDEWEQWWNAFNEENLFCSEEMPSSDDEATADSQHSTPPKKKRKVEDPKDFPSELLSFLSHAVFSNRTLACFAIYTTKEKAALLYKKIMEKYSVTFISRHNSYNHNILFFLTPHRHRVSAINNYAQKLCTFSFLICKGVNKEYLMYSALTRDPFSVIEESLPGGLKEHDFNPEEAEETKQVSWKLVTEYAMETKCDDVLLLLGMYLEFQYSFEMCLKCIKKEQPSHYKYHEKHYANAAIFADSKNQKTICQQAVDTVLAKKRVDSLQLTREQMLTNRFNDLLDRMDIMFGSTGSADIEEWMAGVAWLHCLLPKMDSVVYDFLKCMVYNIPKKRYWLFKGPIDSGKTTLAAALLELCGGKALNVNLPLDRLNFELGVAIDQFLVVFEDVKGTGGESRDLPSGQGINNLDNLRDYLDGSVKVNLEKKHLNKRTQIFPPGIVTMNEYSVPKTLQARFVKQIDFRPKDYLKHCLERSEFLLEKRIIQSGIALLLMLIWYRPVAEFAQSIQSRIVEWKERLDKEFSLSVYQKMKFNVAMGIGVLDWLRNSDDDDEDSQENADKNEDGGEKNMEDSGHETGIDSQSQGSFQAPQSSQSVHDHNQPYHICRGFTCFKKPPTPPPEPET
Chain of Dual specificity protein phosphatase 3 (P51452 whole entry): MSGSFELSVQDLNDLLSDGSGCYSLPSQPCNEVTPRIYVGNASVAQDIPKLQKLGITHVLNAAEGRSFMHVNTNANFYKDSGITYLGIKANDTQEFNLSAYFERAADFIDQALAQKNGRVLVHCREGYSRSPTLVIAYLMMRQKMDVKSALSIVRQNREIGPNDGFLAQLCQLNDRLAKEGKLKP
Chain of Tyrosine-protein phosphatase non-receptor type 5 (P54829 whole entry): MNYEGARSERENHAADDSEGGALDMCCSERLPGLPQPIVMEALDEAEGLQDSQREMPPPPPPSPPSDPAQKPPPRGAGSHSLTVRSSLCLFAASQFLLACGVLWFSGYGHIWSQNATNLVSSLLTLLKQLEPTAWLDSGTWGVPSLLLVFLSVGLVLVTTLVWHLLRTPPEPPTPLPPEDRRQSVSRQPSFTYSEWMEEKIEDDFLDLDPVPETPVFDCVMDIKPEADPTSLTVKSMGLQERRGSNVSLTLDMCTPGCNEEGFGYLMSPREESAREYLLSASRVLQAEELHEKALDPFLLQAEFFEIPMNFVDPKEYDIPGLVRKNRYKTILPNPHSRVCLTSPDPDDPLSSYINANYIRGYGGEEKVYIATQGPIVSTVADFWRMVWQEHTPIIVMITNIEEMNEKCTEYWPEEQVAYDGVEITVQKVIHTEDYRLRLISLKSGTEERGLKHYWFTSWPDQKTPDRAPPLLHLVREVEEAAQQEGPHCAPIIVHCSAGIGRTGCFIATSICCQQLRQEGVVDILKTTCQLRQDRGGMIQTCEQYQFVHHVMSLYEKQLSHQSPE

## Cc1ccc(-c2nc(C(Cl)Cl)c3ccccc3n2)cc1
[1]
  IC50: 0.373 µM (active)
[2]
  AC50: 1.1 µM (active)
INS1
  AC50: 4.53 µM (active)
[3]
  AC50: 10.1 µM (active)
[4]
  AC50: 20 µM (active)

## Cc1ccc(S(=O)(=O)N2[C@@H](c3ccc(Br)cc3)C(C(=O)O)=CC[C@H]2c2ccc(Cl)cc2)cc1
[5]
  EC50: 13.1 µM (inactive)
[6]
  EC50: > 29.9 µM (inactive)
[7]
  IC50: 17.5 µM (inactive)
[8]
  IC50: 1.62 µM (active)

## CCOc1ccc2nc(NN=C3C(=O)NC(=S)NC3=O)sc2c1
[9]
  IC50: 13.9 µM (active)

## CCn1cc(C(=O)NC2CCCc3c2cnn3-c2cccc(C)c2C)cn1 (stereo unspecified)
Galanin receptor type 3
  IC50: 0.874 µM (active)
[10]
  IC50: > 80 µM (inactive)
cells
  EC50: > 29.9 µM (inactive)

## O=C(O)Cc1cccc(O)c(=O)c1C(=O)O
[11]
  IC50: 11.6 µM (active)
[12]
  IC50: 0.376 µM (active)
[13]
  IC50: 8.34 µM (active)
[14]
  IC50: 3.9 µM (active)
[15]
  IC50: 0.544 µM (active)

## CC(C)N1C[C@@H](CN(C)Cc2ccc(Cl)cc2)Oc2c(NC(=O)c3ccnn3C)cccc2C1=O
[16]
  AC50: 0.334 µM (active)

## COc1ccc2c(c1OC)c(=O)n1c3ccc(OC(C)C(=O)NCCN4CCOCC4)cc3c3ccnc2c31 (stereo unspecified)
[17]
  AC50: 4.31 µM (active)
H9c2
  IC50: 21.3 µM (active)

## Oc1cc2c(c(Cl)c1O)CCNCC2c1ccccc1 (stereo unspecified)
Protein skinhead-1
  IC50: > 100 µM (inactive)
Galanin receptor type 3
  IC50: 3.83 µM (active)
Large T antigen
  IC50: > 100 µM (active)
[18]
  AC50: 3.83 µM (active)
[19]
  EC50: 6.54 µM (active)
Mu-type opioid receptor
  EC50: 92.5 µM (inactive)
[20]
  IC50: > 29.9 µM (inactive)
[21]
  EC50: 8.14 µM (active)

## CCOc1ccccc1NC(=O)C(OC(=O)c1ccc(N(C)C)cc1)c1ccccc1 (stereo unspecified)
[22]
  EC50: 2.75 µM (active)

## C[C@H](NC(=O)C[C@H]1CC[C@@H]2[C@@H](COc3ccc(NS(=O)(=O)c4ccc(Cl)cc4)cc3C(=O)N2C)O1)c1ccccc1
[23]
  AC50: 29.5 µM (active)
[4]
  AC50: 18.2 µM (active)

## COc1ccc(C(=O)NCc2cc(C)n(C)n2)cc1OC1CCN(C(C)C)CC1
[24]
  IC50: 65.5 µM (inconclusive)

## CC(C)N1C[C@H](C)[C@@H](CN(C)C(=O)OC(C)(C)C)Oc2c(NC(=O)c3ccncc3)cccc2C1=O
[25]
  IC50: > 20 µM (inactive)

## O=C(NCCN1CCC2(CC1)C(=O)NCN2c1ccccc1)c1ccccc1F
Vero
  AC50: 31.5 µM (active)

## CCCCC(=O)Nc1nc(-c2ccc(C(=O)N3CCOCC3)cc2)cs1
Fatty acid synthase
  IC50: 35.3 µM (inactive)
